Measured values taken from US20230382863A1, “MEK INHIBITORS AND USES THEREOF” (Ikena Oncology, Inc., priority 2022, published 2023).
pIC50: −log10 of the molar value.

Experiments:
pERK HCT-116 (G13D) = pERK HCT-116 (G13D) ICW (4 hour); format: cell-based; conditions: Homo sapiens, read-out: pERK HCT-116 (G13D) ICW (4 hour): Average IC50 (nM)
uMEK/BRAF = uMEK/BRAF (Homo sapiens (Human), UniProt Q02750); assay: MEK-RAF Binding Assay (uMEK/BRAF HTRF)
[1] = Cassette pharmacokinetics studies in mice; format: in vivo; conditions: male, Balb/c, plasma; Mouse, PO, 5 mg/kg
Protocol: Pharmacokinetics studies were conducted using cassette dosing protocols, with test compounds administered per mouse. Treatment groups were 3 mice (˜6-8 weeks old, ˜20-30 g Balb/c male mice) per route of administration. Compounds were formulated in 5% DMSO and 95% PEG400 with final concentrations of 0.5 mg/mL for IV and PO dosing. Compounds were dosed at 2 mg/kg for IV dosing and 5 mg/kg for PO dosing. Blood samples were withdrawn at 0.083, 0.25, 0.5, 1.0, 2.0, 4.0, 6.0, 8.0, and 24 hours following IV dosing, and 0.25, 0.5, 1.0, 2.0, 4.0, 6.0, 8.0, and 24 hours following PO dosing. Blood samples were centrifuged at 4,000 g for 5 minutes at 4° C. to obtain plasma samples. Plasma samples were diluted with acetonitrile containing internal standard, vortexed for 30 seconds, then centrifuged at 4,000 rpm for 15 minutes at 4° C. The supernatant was diluted with water, and compound concentration was determined by HPLC/MS/MS compared to calibration standards of 0.5-1,000 ng/mL.
Where route is listed as “IV*”, the compound was dosed IV at 1 mg/kg.

[2] = test system: Phosphorylation of ERK1/2 in AsPC1 cells; assay: 4 hour pERK1/2 HTRF Assay; format: cell-based; conditions: Homo sapiens, ASPC1, read-out: pERK AsPC-1 HTRF (4 hour): Average IC50 (nM); AsPC-1, 4 hour
Protocol: AsPC1 cells were seeded at 20,000 cells/well overnight in 96-well plates, then treated with a 12-point dose response of compounds (Starting dose of 3000 nM and 3-fold dilution) for 4 hours. AsPC1 cells are a K-Ras mutant cell line. Phosphorylation of ERK1/2 on residues Thr202 and Tyr204 were detected using a Homogenous Time-Resolved Fluorescence (HTRF) assay (Cisbio Cat #64ERKPEG). Briefly, ERK phosphorylation was detected using a sandwich assay format using two phospho-ERK specific antibodies, one labelled with EU^3+-Cryptate (donor) and the second with d2 (acceptor). The Fluorescence Resonance Energy Transfer (FRET) towards the d2 acceptor was detected at a wavelength of 665 nm. ERK1/2 phosphorylation levels were normalized to total ERK1/2 protein levels in each well. IC50 values were determined by fitting a variable slope, four parameters curve to the compound concentration to normalized Phospho-ERK1/2 relationship.

| IC50 [2] [nM] | Compound | further results |
| --- | --- | --- |
| – | Cc1c(Oc2cccc(N=S(C)(N)=O)c2)c(C(=O)NC2CC2)c(Nc2ccc(I)cc2F)n(C)c1=O (stereo in doubt) [Compound I-7, (S)-4-(3-((amino(methyl)oxo-lambda6-sulfaneylidene)amino)phenoxy)-N-cyclopropyl-2-((2-fluoro-4-iodophenyl)amino)-1,5-dimethyl-6-oxo-1,6-dihydropyridine-3-carboxamide] | IC50 (pERK HCT-116 (G13D)): < 100 nM; pIC50 (uMEK/BRAF): > 7.00 |
| – | CNS(=O)(=O)Nc1cc(Oc2c(C(=O)NC3CC3)c(Nc3ccc(I)cc3F)n(C)c(=O)c2C)ccc1Cl [Compound I-19] | pIC50 (uMEK/BRAF): 6.00 to 7.00 |
| – | CNS(=O)(=O)Nc1cc(C)cc(Oc2c(C(=O)NC3CC3)c(Nc3ccc(I)cc3F)n(C)c(=O)c2C)c1 [Compound I-21] | pIC50 (uMEK/BRAF): 6.00 to 7.00 |
| – | CNS(=O)(=O)Nc1cccc(Oc2c(C(=O)NC3CC3)c(Nc3ccc(I)cc3F)n(C)c(=O)c2C)c1C(F)(F)F [Compound I-37] | AUC(0-inf) [1]: 12900 ng·h/mL; AUC(0-t) [1]: 12900 ng·h/mL; Cmax [1]: 1730 ng/mL; Tmax [1]: 1.7 h; half-life [1]: 1.99 h |
| < 100 | CNS(=O)(=O)Nc1c(F)ccc(Oc2c(C(=O)NC3CC3)c(Nc3ccc(I)cc3F)n(C)c(=O)c2C)c1Cl [Compound I-38] | pIC50 (uMEK/BRAF): > 7.00 |
| < 100 | CNS(=O)(=O)Nc1cccc(Oc2c(C(=O)NCC3CC3)c(Nc3ccc(I)cc3F)n(C)c(=O)c2C)c1Cl [Compound I-39] | pIC50 (uMEK/BRAF): > 7.00 |
| < 100 | CNS(=O)(=O)Nc1cccc(Nc2c(C(=O)OC3CC3)c(Nc3ccc(I)cc3F)n(C)c(=O)c2C)c1Cl [Compound I-47] | – |
| 100 to 1000 | CNS(=O)(=O)Nc1ccc(Oc2c(C(=O)NC3CC3)c(Nc3ccc(I)cc3F)n(C)c(=O)c2C)c(Cl)c1 [Compound I-63] | pIC50 (uMEK/BRAF): 6.00 to 7.00 |
| 100 to 1000 | CNS(=O)(=O)Nc1ccc(Oc2c(C(=O)NC3CC3)c(Nc3ccc(I)cc3F)n(C)c(=O)c2C)cc1 [Compound I-64] | pIC50 (uMEK/BRAF): 6.00 to 7.00; AUC(0-inf) [1]: 505 ng·h/mL; AUC(0-t) [1]: 492 ng·h/mL; Cmax [1]: 231 ng/mL; Tmax [1]: 0.8 h; half-life [1]: 2.1 h |
| 1000 to 10000 | CNS(=O)(=O)n1ccc2ccc(Oc3c(C(=O)NC4CC4)c(Nc4ccc(I)cc4F)n(C)c(=O)c3C)cc21 [Compound I-78] | pIC50 (uMEK/BRAF): 6.00 to 7.00 |
| < 100 | CNS(=O)(=O)Nc1cccc(Oc2c(C(=O)N3CCC3)c(Nc3ccc(I)cc3F)n(C)c(=O)c2C)c1Cl [Compound I-79] | pIC50 (uMEK/BRAF): 6.00 to 7.00 |
| < 100 | Cc1c(Oc2cccc(N)c2Cl)c(C(=O)NC2CC2)c(Nc2ccc(I)cc2F)n(C)c1=O [Compound I-86] | pIC50 (uMEK/BRAF): > 7.00 |
| 100 to 1000 | CCc1c(Oc2cccc(NS(=O)(=O)NC)c2Cl)c(C(=O)NC2CC2)c(Nc2ccc(I)cc2F)n(C)c1=O [Compound I-92] | – |
| < 100 | CNS(=O)(=O)Nc1ccnc(Oc2c(C(=O)NC3CC3)c(Nc3ccc(I)cc3F)n(C)c(=O)c2C)c1Cl [Compound I-93] | – |
| 100 to 1000 | Cc1c(Oc2cccc(N(C3CC3)S(=O)(=O)NC3CC3)c2Cl)c(C(=O)NC2CC2)c(Nc2ccc(I)cc2F)n(C)c1=O [Compound I-94] | – |
| < 100 | Cc1c(Oc2cccc(N(CC(F)(F)F)S(=O)(=O)NC3CC3)c2Cl)c(C(=O)NC2CC2)c(Nc2ccc(I)cc2F)n(C)c1=O [Compound I-95] | – |
| 100 to 1000 | CNS(=O)(=O)Nc1cccc(Oc2c(C(=O)NC3CC3)c(Nc3ccc(I)cc3F)n(C)c(=O)c2C)n1 [Compound I-96] | – |
| 100 to 1000 | CNS(=O)(=O)N(CC(F)(F)F)c1cccc(Oc2c(C(=O)NC3CC3)c(Nc3ccc(I)cc3F)n(C)c(=O)c2C)c1Cl [Compound I-97] | – |
| 100 to 1000 | CCN(c1cccc(Oc2c(C(=O)NC3CC3)c(Nc3ccc(I)cc3F)n(C)c(=O)c2C)c1Cl)S(=O)(=O)NC1CC1 [Compound I-98] | – |
| < 100 | Cc1c(Oc2cccc(N(C)S(=O)(=O)NC3CC3)c2Cl)c(C(=O)NC2CC2)c(Nc2ccc(I)cc2F)n(C)c1=O [Compound I-99] | – |
| < 100 | CNS(=O)(=O)N(C)c1cccc(Oc2c(C(=O)NC3CC3)c(Nc3ccc(I)cc3F)n(C)c(=O)c2C)c1Cl [Compound I-100] | – |
| < 100 | CCN(C1CC1)S(=O)(=O)Nc1cccc(Oc2c(C(=O)NC3CC3)c(Nc3ccc(I)cc3F)n(C)c(=O)c2C)c1Cl [Compound I-101] | – |

| IC50 [2] [nM] | Compound | further results |
| --- | --- | --- |
| < 100 | Cc1c(Oc2cccc(NS(=O)(=O)N(C)C3CC3)c2Cl)c(C(=O)NC2CC2)c(Nc2ccc(I)cc2F)n(C)c1=O [Compound I-102] | – |
| < 100 | Cc1c(Oc2cccc(NS(=O)(=O)N3CCC3)c2C(F)(F)F)c(C(=O)NC2CC2)c(Nc2ccc(I)cc2F)n(C)c1=O [Compound I-103] | – |
| < 100 | Cc1c(Oc2cccc(NS(=O)(=O)N3CC(F)C3)c2Cl)c(C(=O)NCC(F)(F)F)c(Nc2ccc(I)cc2F)n(C)c1=O [Compound I-104] | – |
| < 100 | Cc1c(Oc2cccc(NS(=O)(=O)N(C)C)c2Cl)c(C(=O)NCC(F)(F)F)c(Nc2ccc(I)cc2F)n(C)c1=O [Compound I-105] | – |
| < 100 | Cc1c(Oc2cccc(NS(=O)(=O)N3CCC3)c2Cl)c(C(=O)NCC(F)(F)F)c(Nc2ccc(I)cc2F)n(C)c1=O [Compound I-106] | – |
| < 100 | Cc1c(Oc2cccc(NS(=O)(=O)N3CC(F)C3)c2Cl)c(C(=O)NC2CC2)c(Nc2ccc(I)cc2F)n(C)c1=O [Compound I-107] | – |
| < 100 | Cc1c(Oc2cccc(NS(=O)(=O)N3CCC3)c2Cl)c(C(=O)NC2CC2)c(Nc2ccc(I)cc2F)n(C)c1=O [Compound I-108] | – |
| < 100 | CNS(=O)(=O)Nc1cccc(Oc2c(C(=O)NC3CC3)c(Nc3ccc(I)cc3F)n(C)c(=O)c2C)c1Cl [Compound I-109] | – |
| < 100 | CCN(CC)S(=O)(=O)Nc1cccc(Oc2c(C(=O)NC3CC3)c(Nc3ccc(I)cc3F)n(C)c(=O)c2C)c1Cl [Compound I-110] | – |
| < 100 | CCN(C)S(=O)(=O)Nc1cccc(Oc2c(C(=O)NC3CC3)c(Nc3ccc(I)cc3F)n(C)c(=O)c2C)c1Cl [Compound I-111] | – |
| < 100 | Cc1c(Oc2cccc(NS(N)(=O)=O)c2Cl)c(C(=O)NC2CC2)c(Nc2ccc(I)cc2F)n(C)c1=O [Compound I-112] | AUC(0-inf) [1]: 5830 ng·h/mL; AUC(0-t) [1]: 5370 ng·h/mL; Cmax [1]: 979 ng/mL; Tmax [1]: 1.3 h; half-life [1]: 2.27 h |
| < 100 | Cc1c(Oc2cccc(NS(=O)(=O)N(C)C)c2Cl)c(C(=O)NC2CC2)c(Nc2ccc(I)cc2F)n(C)c1=O [Compound I-113] | – |
| < 100 | CNS(=O)(=O)Nc1ccnc(Oc2c(C(=O)NC3CC3)c(Nc3ccc(I)cc3F)n(C)c(=O)c2C)c1OC [Compound I-115] | – |
| 1000 to 10000 | CNS(=O)(=O)Nc1cncc(Oc2c(C(=O)NC3CC3)c(Nc3ccc(I)cc3F)n(C)c(=O)c2C)c1OC [Compound I-116] | – |
| 1000 to 10000 | CCn1c(Nc2ccc(I)cc2F)c(C(=O)NC2CC2)c(Oc2cccc(NS(=O)(=O)NC)c2Cl)c(C2CC2)c1=O [Compound I-117] | – |
| < 100 | CNS(=O)(=O)Nc1cccc(Oc2c(C(=O)NCC[C@H](O)CO)c(Nc3ccc(I)cc3F)n(C)c(=O)c2C)c1Cl [Compound I-118] | – |
| < 100 | CNS(=O)(=O)Nc1cccc(Oc2c(C(=O)NCC[C@@H](O)CO)c(Nc3ccc(I)cc3F)n(C)c(=O)c2C)c1Cl [Compound I-119] | – |
| 1000 to 10000 | CCc1c(Oc2cccc(NS(=O)(=O)NC)c2Cl)c(C(=O)NC2CC2)c(Nc2ccc(I)cc2F)n(C2CC2)c1=O [Compound I-120] | – |
| < 100 | CNS(=O)(=O)Nc1nccc(Oc2c(C(=O)NC3CC3)c(Nc3ccc(I)cc3F)n(C)c(=O)c2C)c1Cl [Compound I-121] | – |
| 100 to 1000 | CNS(=O)(=O)Nc1cncc(Oc2c(C(=O)NC3CC3)c(Nc3ccc(I)cc3F)n(C)c(=O)c2C)c1Cl [Compound I-122] | – |
| – | CNS(=O)(=O)Nc1cccc(Oc2c(C(=O)N(C)C3CCC3)c(Nc3ccc(I)cc3F)n(C)c(=O)c2C)c1 [Compound I-133] | AUC(0-inf) [1]: 28 ng·h/mL; AUC(0-t) [1]: 27 ng·h/mL; Cmax [1]: 41.2 ng/mL; Tmax [1]: 0.2 h; half-life [1]: 0.4 h |
| – | N-cyclopropyl-4-((2,2-dioxido-3,4-dihydro-1H-benzo[c][1,2,6]thiadiazin-7-yl)oxy)-2-((2-fluoro-4-iodophenyl)amino)-1,5-dimethyl-6-oxo-1,6-dihydropyridine-3-carboxamide [Compound I-14] | pIC50 (uMEK/BRAF): 6.00 to 7.00 |
